Five molecules from patent publication US5104862A, “Bethalactam elastase inhibitors containing phosphorous acid derivatives at the 4-position of the 2-azetidinone” (Merck & Co., Inc., priority 1991, dated 1992) can be followed below.

This assay addresses T1, human polymorphonuclear leukocyte elastase (human granulocyte elastase) (Homo sapiens, UniProt P08246).
T1 construct: Crude extract of human polymorphonuclear leukocytes (PMN) containing elastase activity; endogenous in cells; host or cells: human polymorphonuclear leukocytes (crude extract)
T1 sequence (P08246 30-267): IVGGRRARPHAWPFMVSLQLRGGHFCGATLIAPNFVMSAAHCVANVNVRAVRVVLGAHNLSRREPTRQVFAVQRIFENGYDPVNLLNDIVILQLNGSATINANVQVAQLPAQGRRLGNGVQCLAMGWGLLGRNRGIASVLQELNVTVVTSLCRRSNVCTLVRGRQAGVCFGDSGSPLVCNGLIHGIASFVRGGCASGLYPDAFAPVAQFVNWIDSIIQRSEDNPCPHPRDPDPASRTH
Put plainly: Enzyme assay for inhibition of human polymorphonuclear leukocyte elastase via hydrolysis of Boc-AAPAN or Boc-AAPVN. The assay is classed as biochemical. The settings on record: crude extract of human PMN; 0.2 mM Boc-AAPAN or Boc-AAPVN; 0.05M TES buffer pH 7.5; read-out: kobs /I, second order rate constant for inactivation of the enzyme. As for the experimental part:
Enzyme Assays for the Inhibition of Human Polymorphonuclear Leukocyte Elastase Via Hydrolysis of N-t-Boc-alanyl-alanyl-prolyl-alanine-p-nitroanilide (Boc-AAPAN) or N-t-Boc-alanyl-prolyl-valine-p-nitroanilide (Boc-AAPVN) Reagent
0.05M TES (N-tris[hydroxymethyl]methyl-2-amino-ethanesulfonic acid) Buffer, pH 7.5.
0.2 mM Boc-AAPAN or Boc-AAPVN.
To prepare substrate, the solid was first dissolved in 10.0 ml DMSO. Buffer at pH 7.5 was then added to a final volume of 100 ml.
Crude extract of human polymorphonuclear leukocytes (PMN) containing elastase activity.
Inhibitors (azetidinones) to be tested dissolved in DMSO just before use.
To 1.0 ml of 0.2 mM Boc-AAPAN in a cuvette, 0.01-0.1 ml of DMSO with or without inhibitor was added. After mixing, a measurement was taken at 410 mμ to detect any spontaneous hydrolysis due to presence of test compound. 0.05 Milliliters of PMN extract was then added and the ΔOD/min at 410 mμ was measured and recorded. Beckman model 35 spectrophotometer was used.
The elastase activity in the crude PMN extract may vary from one preparation to another. A control of each new batch is run, and the volume added in the assay procedure is adjusted according to activity.
Consider `CCC[C@@H](NC(=O)N1C(=O)C(CC)(CC)[C@@H]1Oc1ccc(CP(C)(=O)O)cc1)c1ccc(C)cc1` [Example 6, (4S)-3,3-Diethyl-1-[(R)-α-n-propyl(4-methyl)-benzylaminocarbonyl]-4-[4-(methyl(hydroxyphosphinyl)methyl)phenoxy]-azetidin-2-one], for which the kinact/KI was 420000 M⁻¹ s⁻¹.
For `C=CCP(=O)(O)Cc1ccc(O[C@@H]2N(C(=O)N[C@H](CCC)c3ccc(C)cc3)C(=O)C2(CC)CC)cc1` [Example 4, (4S)-3,3-Diethyl-1-[(R)-α-n-propyl(4-methyl)-benzylaminocarbonyl]-4-[4-(allyl(hydroxyphosphinyl)methyl)phenoxy]-azetidin-2-one] the value was 740000 M⁻¹ s⁻¹; for `C=CCP(=O)(Cc1ccc(O[C@@H]2N(C(=O)N[C@H](CCC)c3ccc(C)cc3)C(=O)C2(CC)CC)cc1)OCC` (stereo partly drawn) [Example 3, (4S)-3,3-Diethyl-1-[(R)-α-n-propyl(4-methyl)-benzylaminocarbonyl]-4-[4-(allyl(ethoxyphosphinyl)methyl)phenoxy]-azetidin-2-one], 1.3e+06 M⁻¹ s⁻¹; for `CCC[C@@H](NC(=O)N1C(=O)C(CC)(CC)[C@@H]1Oc1ccc(CP(=O)(O)CCC)cc1)c1ccc(C)cc1` [Example 8, (4S)-3,3-Diethyl-1-[(R)-α-n-propyl(4-methyl)-benzylaminocarbonyl]-4-[4-(n-propyl(hydroxyphosphinyl)methyl)-phenoxy]-azetidin-2-one], 910000 M⁻¹ s⁻¹.
With `CCC[C@@H](NC(=O)N1C(=O)C(CC)(CC)[C@@H]1Oc1ccc(CP(=O)(O)c2ccccc2)cc1)c1ccc(C)cc1` [Example 2], the kinact/KI stood at 1.2e+06 M⁻¹ s⁻¹.
